Results taken from US20170327549A1, “Adenylation Enzyme Inhibitors” (Stichting Het Nederlands Kanker Instituut - antoni van …, priority 2014, published 2017).

Target: T1, Uba1 (Homo sapiens, UniProt P22314)
T1 sequence (P22314 1-1058): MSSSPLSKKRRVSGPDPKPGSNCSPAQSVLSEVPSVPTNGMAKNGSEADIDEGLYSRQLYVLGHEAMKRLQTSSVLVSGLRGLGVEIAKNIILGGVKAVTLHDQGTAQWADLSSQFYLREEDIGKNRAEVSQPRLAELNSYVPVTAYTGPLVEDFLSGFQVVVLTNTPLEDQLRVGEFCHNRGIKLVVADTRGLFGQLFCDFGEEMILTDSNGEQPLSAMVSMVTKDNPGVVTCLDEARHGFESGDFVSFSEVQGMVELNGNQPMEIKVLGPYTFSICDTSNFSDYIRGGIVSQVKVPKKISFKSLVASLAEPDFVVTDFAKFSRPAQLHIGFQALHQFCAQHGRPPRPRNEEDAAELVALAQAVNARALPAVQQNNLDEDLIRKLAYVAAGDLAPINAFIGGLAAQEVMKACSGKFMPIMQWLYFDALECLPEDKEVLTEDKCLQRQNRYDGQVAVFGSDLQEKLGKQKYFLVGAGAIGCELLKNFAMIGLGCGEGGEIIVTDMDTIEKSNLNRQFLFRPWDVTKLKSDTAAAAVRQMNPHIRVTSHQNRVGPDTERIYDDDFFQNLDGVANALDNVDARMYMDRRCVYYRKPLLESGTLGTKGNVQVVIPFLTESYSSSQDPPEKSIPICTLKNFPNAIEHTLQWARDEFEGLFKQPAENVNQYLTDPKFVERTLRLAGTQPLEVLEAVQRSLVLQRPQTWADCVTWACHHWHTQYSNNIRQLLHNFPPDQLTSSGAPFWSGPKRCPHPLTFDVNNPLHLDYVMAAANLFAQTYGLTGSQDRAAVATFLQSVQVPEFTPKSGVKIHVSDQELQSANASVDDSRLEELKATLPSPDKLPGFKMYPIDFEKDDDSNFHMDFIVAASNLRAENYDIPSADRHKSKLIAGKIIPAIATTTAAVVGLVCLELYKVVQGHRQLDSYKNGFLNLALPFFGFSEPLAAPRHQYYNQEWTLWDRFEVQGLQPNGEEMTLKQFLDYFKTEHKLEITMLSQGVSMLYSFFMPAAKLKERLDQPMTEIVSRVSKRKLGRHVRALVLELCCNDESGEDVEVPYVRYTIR
Test: Peptide inhibitors of Ub-E1 thioester formation
Type: biochemical
Protocol: Peptides VYRFYGG and VYRFYGΔAla of varying concentrations (10, 50, 100, 200, 500, 700, 1000 μM) were incubated with 0.3 μM Uba1 in the presence of 1 mM ATP and 10 mM MgCl2 in TBS buffer (50 mM Tris, 150 mM NaCl, pH=7.5) for 15 min at room temperature. TAMRA-Ub (1 μM) was added to the reaction and samples were taken at two time points, respectively 15 sec and 15 min. The proteins were separated by SDS-PAGE and the TAMRA-Ub-E1 conjugates were visualized using a fluorescence scanner (λex=530 nm; λem=580 nm).

[1] = initial velocities measured at 15 seconds
[2] = reactions allowed to proceed for 15 min

Row | Substance | inhibitory potency against Uba1 activity relative to VYRFYGG (after 15 min incubation, quantified from gel scanning) | inhibition of (TAMRA-Ub)-E1 formation [1] | inhibition of (TAMRA-Ub)-E1 formation [2]
1 | VYRFYG-ΔAla | higher inhibitory potency against Uba1 activity | inhibitory effect | prolonged inhibition of the E1
2 | VYRFYGG [reference compound] | – | inhibitory effect | no detectable inhibition of E1 activity
